Results published in patent publication US20230416248A1, “COMPOUNDS AND USES THEREOF” (Foghorn Therapeutics Inc., priority 2020, published 2023).
Where two headings read alike, the source gives them in different places.

Legend:
[1] = biological target: T1, BRM (Homo sapiens, UniProt P51531); assay: ATPase catalytic activity of BRM, ADP-Glo in vitro biochemical assay; conditions: for IC50: 30 nM BRM, 400 μM ATP; for Ratio* (BRG1 IC50 (μM) divided by BRM IC50 (μM)): selectivity ratio BRG1 IC50 / BRM IC50
T1 construct: made in house; host or cells: High Five insect cells
Outline: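 ADP-Glo luminescence, after depletion of leftover ATP and conversion of ADP, reported the activity. The 1 h room-temperature reaction held 400 μM ATP, 20 nM salmon sperm DNA and 30 nM BRM in 20 mM Tris pH 8, 20 mM MgCl2, 50 mM NaCl, 0.1% Tween-20, 1 mM DTT.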

[2] = biological target: T2, BRG-1 (Homo sapiens, UniProt P51532); assay: ATPase catalytic activity of BRG-1, ADP-Glo in vitro biochemical assay; conditions: 30 nM BRG-1, 400 μM ATP, read-out: BRG1 IC50
T2 construct: made in house; host or cells: High Five insect cells
Outline: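 ADP produced by BRG-1 was quantified by luciferase luminescence. A 60 min room-temperature ADP-to-ATP conversion followed a 40 min ATP-depletion step.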

[3] = ATPase catalytic activity, ADP-Glo

T1 sequence (P51531 whole entry): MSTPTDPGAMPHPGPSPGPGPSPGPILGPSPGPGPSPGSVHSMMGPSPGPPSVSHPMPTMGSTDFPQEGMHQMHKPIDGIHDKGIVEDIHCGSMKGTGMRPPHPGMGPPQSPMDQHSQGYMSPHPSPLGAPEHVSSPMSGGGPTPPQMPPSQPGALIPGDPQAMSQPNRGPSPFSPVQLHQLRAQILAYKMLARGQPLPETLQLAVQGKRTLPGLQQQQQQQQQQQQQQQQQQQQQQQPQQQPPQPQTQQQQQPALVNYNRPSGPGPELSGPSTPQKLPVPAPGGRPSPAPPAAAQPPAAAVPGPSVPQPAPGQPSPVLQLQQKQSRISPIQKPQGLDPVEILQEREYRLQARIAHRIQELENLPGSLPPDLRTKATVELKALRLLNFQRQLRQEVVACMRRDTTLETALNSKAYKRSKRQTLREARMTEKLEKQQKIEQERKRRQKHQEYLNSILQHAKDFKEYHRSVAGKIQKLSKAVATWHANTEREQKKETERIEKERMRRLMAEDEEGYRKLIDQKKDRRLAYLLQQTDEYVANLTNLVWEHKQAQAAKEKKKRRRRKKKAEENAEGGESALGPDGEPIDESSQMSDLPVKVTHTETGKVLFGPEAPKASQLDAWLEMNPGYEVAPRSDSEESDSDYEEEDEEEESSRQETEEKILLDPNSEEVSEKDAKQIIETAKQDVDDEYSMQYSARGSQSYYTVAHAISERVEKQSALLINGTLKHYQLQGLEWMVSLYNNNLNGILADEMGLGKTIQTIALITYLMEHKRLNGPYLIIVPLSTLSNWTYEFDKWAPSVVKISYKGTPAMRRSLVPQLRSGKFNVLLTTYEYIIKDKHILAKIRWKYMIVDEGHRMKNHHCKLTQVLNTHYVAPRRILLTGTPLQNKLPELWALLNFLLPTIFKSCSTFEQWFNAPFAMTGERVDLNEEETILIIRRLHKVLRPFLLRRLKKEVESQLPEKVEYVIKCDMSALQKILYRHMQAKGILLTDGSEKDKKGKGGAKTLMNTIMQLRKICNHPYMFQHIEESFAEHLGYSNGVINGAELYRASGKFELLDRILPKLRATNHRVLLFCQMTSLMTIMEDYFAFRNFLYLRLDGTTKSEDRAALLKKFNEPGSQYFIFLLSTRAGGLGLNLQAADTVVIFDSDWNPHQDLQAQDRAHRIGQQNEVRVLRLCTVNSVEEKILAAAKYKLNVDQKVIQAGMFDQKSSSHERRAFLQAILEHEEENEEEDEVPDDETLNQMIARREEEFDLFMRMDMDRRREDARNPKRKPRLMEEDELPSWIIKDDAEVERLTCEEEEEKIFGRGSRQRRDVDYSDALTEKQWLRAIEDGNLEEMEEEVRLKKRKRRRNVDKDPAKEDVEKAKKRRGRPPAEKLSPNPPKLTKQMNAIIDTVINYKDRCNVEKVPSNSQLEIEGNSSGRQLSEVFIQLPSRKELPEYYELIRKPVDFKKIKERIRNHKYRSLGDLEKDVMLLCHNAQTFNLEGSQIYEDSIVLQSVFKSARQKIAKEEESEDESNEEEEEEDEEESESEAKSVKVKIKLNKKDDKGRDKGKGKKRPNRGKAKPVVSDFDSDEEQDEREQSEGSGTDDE
T2 sequence (P51532 whole entry): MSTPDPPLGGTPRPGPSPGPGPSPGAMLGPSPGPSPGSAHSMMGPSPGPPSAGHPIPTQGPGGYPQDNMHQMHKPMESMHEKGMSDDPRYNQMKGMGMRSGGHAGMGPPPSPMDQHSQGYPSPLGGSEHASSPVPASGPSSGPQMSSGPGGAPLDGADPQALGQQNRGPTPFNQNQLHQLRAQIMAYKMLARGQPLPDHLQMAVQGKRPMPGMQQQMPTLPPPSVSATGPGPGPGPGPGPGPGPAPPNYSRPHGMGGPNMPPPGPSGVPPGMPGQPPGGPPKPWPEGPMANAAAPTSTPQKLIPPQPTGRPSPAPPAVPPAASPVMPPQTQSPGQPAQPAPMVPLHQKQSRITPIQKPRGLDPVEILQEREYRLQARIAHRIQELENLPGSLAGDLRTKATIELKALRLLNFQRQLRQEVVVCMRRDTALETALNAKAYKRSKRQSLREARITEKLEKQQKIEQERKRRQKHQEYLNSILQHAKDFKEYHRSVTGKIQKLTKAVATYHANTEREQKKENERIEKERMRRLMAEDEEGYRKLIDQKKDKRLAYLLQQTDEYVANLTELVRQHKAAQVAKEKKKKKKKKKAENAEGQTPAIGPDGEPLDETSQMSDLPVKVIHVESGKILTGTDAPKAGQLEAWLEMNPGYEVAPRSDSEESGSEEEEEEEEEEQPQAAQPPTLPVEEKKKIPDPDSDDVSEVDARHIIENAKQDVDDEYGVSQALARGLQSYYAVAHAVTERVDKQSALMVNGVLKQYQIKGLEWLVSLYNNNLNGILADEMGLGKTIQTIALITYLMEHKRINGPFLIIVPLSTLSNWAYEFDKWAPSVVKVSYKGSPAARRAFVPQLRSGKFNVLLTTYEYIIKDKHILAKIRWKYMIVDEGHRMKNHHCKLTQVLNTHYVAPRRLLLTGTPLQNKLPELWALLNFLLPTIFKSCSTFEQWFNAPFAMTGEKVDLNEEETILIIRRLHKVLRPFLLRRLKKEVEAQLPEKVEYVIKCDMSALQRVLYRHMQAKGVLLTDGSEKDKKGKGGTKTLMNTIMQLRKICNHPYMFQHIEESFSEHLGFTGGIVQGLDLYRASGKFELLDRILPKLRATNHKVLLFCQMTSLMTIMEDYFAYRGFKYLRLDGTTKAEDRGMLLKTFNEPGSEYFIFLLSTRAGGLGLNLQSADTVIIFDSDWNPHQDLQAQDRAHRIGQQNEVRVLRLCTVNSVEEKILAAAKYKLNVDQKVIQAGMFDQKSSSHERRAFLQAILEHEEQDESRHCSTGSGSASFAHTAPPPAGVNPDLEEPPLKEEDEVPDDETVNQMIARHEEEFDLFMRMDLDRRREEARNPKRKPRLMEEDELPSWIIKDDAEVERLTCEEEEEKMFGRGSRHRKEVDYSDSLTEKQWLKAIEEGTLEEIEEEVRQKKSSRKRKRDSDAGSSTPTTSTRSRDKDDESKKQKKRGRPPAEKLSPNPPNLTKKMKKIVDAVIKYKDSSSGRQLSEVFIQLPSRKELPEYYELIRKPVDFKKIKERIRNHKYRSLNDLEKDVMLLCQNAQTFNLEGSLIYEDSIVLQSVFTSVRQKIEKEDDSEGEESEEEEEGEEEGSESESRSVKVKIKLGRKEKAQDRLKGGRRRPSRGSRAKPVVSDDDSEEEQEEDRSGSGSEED

| Compound | IC50 [1, 3] [nM] | Ratio* ([1]; ratio of BRG1 IC50 to BRM IC50) | IC50 [2, 3] [nM] | IC50 ([1]; ADP-Glo ATPase assay) [nM] | Ratio* (BRG1 IC50 (μM) divided by BRM IC50 (μM)) [1] | IC50 ([2]; ADP-Glo ATPase assay) [nM] | Ratio* ([1]; ratio BRG1 IC50 / BRM IC50) |
| --- | --- | --- | --- | --- | --- | --- | --- |
| C[C@@H]1CN(c2cccc(-c3ccc4cnc(CNC(=O)c5cc(F)c6c(c5)S(=O)(=O)CCO[C@@H]6C)cc4n3)n2)C[C@H](C)O1 [Compound 516] | 12.2 | 6.98 | 85 | – | – | – | – |
| COc1cnc2c(c1C)CCCN2c1ccc2cnc(CNC(=O)c3ccc4c(c3)S(=O)(=O)CCOC4)cc2n1 [Compound 637] | 20 | 10.34 | 207 | – | – | – | – |
| O=C(NCc1cc2nc(N3CCCc4cc(F)c(OCC5COC5)cc43)ccc2cn1)c1ccc2c(c1)S(=O)(=O)CCOC2 [Compound 726] | – | – | – | 24.7 | – | 292 | 11.83 |
| O=C(NCc1cc2cc(N3CCOc4ccc(C(F)F)nc43)ccc2cn1)c1ccc2c(c1)S(=O)(=O)CCOC2 [Compound 799] | – | – | – | 25.5 | – | 663 | 26.04 |
| O=C(NCc1cc2cc(N3CCOc4ccc(C5CC5)nc43)ccc2cn1)c1ccc2c(c1)S(=O)(=O)CCOC2 [Compound 729] | – | – | – | 44.6 | – | 1920 | 42.98 |
| O=C(NCc1cc2nc(N3CCOc4c3ncc(C3CC3)c4F)ccc2cn1)c1ccc2c(c1)S(=O)(=O)CCOC2 [Compound 827] | – | – | – | 13.1 | – | 153 | 11.63 |
| O=C(NCc1cc2nc(-c3ccc4c(n3)CN(C3CC3)CC4)ccc2cn1)c1ccc2c(c1)S(=O)(=O)CCOC2 [Compound 788] | – | – | – | 620 | – | 4150 | 6.69 |
| C[C@@H]1CN(c2cccc(-c3ccc4nnc(CNC(=O)c5ccc(Cl)c(S(C)(=O)=O)c5)cc4n3)n2)C[C@H](C)O1 [Compound 406] | 5 | 13.86 | 69.7 | – | – | – | – |
| Cc1cc2c(-c3ccc4cnc(CNC(=O)c5ccc6c(c5)S(=O)(=O)CCOC6)cc4n3)ccnc2n1C [Compound 146] | – | – | – | 15.3 | 12.92 | 197 | – |
| O=C(NCc1cc2nc(N3CCN(CC(F)F)c4cccnc43)ccc2cn1)c1ccc2c(c1)S(=O)(=O)CCOC2 [Compound 742] | – | – | – | 24 | – | 478 | 19.92 |
| Cc1ccc2c(n1)N(c1ccc3cnc(CNC(=O)c4ccc5c(c4)S(=O)(=O)CCOC5)cc3c1)CCO2 [Compound 679] | 18.9 | 22.41 | 423 | – | – | – | – |
| O=C(NCc1cc2nc(N3CCOc4cc(F)c(C(F)F)nc43)ccc2cn1)c1ccc2c(c1)S(=O)(=O)CCOC2 [Compound 781] | – | – | – | 27.9 | – | 713 | 25.53 |
| O=C(NCc1cc2cc(N3CCOc4cc(C5CC5)cnc43)cnc2cn1)c1ccc2c(c1)S(=O)(=O)CCOC2 [Compound 801] | – | – | – | 111 | – | 1440 | 13.00 |
| O=C(NCc1cc2nc(N3CCCc4cc5c(cc43)OCCO5)ccc2cn1)c1ccc2c(c1)S(=O)(=O)CCOC2 [Compound 793] | – | – | – | 11.8 | – | 140 | 11.88 |
| C[C@H]1C[C@H]1c1ccc2c(n1)N(c1ccc3cnc(CNC(=O)c4ccc5c(c4)S(=O)(=O)CCOC5)cc3n1)CCO2 [Compound 831] | – | – | – | 35.2 | – | 1160 | 33.09 |
| O=C(NCc1cc2cc(N3CCOc4cc(N5CCOCC5)cnc43)ccc2cn1)c1ccc2c(c1)S(=O)(=O)CCOC2 [Compound 798] | – | – | – | 7.4 | – | 43.8 | 5.90 |
| O=C(NCc1cc2nc(N3CCc4ccc(Cl)cc43)ccc2cn1)c1ccc2c(c1)S(=O)(=O)CCOC2 [Compound 654] | 104 | 24.78 | 2570 | – | – | – | – |
| O=C(NCc1cc2nc(N3CCOc4cc(N5CCCC5)cnc43)ccc2cn1)c1ccc2c(c1)S(=O)(=O)CCOC2 [Compound 754] | – | – | – | 19.1 | – | 192 | 10.04 |
| C[C@@H]1CN(c2cccc(-c3ccc4nnc(CNC(=O)c5ccc(C(F)F)c(S(C)(=O)=O)c5)cc4n3)n2)C[C@H](C)O1 [Compound 40] | – | – | – | 8.9 | – | 88.4 | – |
| O=C(NCc1cc2nc(N3CCOc4nc(C5CC5)ccc43)ccc2cn1)c1ccc2c(c1)S(=O)(=O)CCOC2 [Compound 843] | – | – | – | 56.2 | – | 484 | 8.61 |
| COc1cc2c(cn1)CCCN2c1ccc2cnc(CNC(=O)c3ccc4c(c3)S(=O)(=O)CCOC4)cc2n1 [Compound 768] | – | – | – | 10.7 | – | 126 | 11.76 |
| COc1nc(C(C)(F)F)ccc1-c1ccc2cnc(CNC(=O)c3cc(F)c4c(c3)S(=O)(=O)[C@@H](C)COC4)cc2n1 [Compound 543] | 20.2 | 18.97 | 383 | – | – | – | – |
| O=C(NCc1cc2nc(N3CCCC4CCCCC43)ccc2cn1)c1ccc2c(c1)S(=O)(=O)CCOC2 (centres unmarked) [Compound 640] | 615 | 7.16 | 4400 | – | – | – | – |
| CCS(=O)(=O)c1cc(C(=O)NCc2cc3nc(-c4cncc(C5CC5)n4)ccc3cn2)ccc1C [Compound 275] | – | – | – | 84.9 | 15.55 | 1320 | – |
| COc1cc(F)cc2c1CCCN2c1ccc2cnc(CNC(=O)c3ccc4c(c3)S(=O)(=O)CCOC4)cc2n1 [Compound 750] | – | – | – | 4 | – | 18.3 | 4.62 |

Results, then the molecule that gave them:

| IC50 [1, 3] [nM] | Ratio* ([1]; ratio of BRG1 IC50 to BRM IC50) | IC50 [2, 3] [nM] | IC50 ([1]; ADP-Glo ATPase assay) [nM] | Ratio* (BRG1 IC50 (μM) divided by BRM IC50 (μM)) [1] | IC50 ([2]; ADP-Glo ATPase assay) [nM] | Ratio* ([1]; ratio BRG1 IC50 / BRM IC50) | Compound |
| --- | --- | --- | --- | --- | --- | --- | --- |
| – | – | – | 80.5 | 9.55 | 769 | – | O=C(NCc1cc2nc(-c3cccc(N4CCC(F)(F)CC4)n3)ccc2cn1)c1ccc2c(c1)S(=O)(=O)CCOC2 [Compound 184] |
| – | – | – | 116 | 18.39 | 2120 | – | CC(C)Oc1cccc(-c2ccc3cnc(CNC(=O)c4ccc5c(c4)S(=O)(=O)CCOC5)cc3n2)n1 [Compound 165] |
| 17.1 | 18.96 | 324 | – | – | – | – | CO[C@H]1C[C@H]1N(C)c1cccc(-c2ccc3cnc(CNC(=O)c4ccc5c(c4)S(=O)(=O)[C@@H](C)COC5)cc3n2)n1 [Compound 669] |
| – | – | – | 8.1 | 16.64 | 135 | – | CCN(CC)c1cccc(-c2ccc3cnc(CNC(=O)c4ccc5c(c4)S(=O)(=O)CCOC5)cc3n2)n1 [Compound 83] |
| – | – | – | 14.6 | 7.89 | 116 | – | CN(C)[C@@H]1CCN(c2cccc(-c3ccc4cnc(CNC(=O)c5ccc6c(c5)S(=O)(=O)CCOC6)cc4n3)n2)CC1(F)F [Compound 79] |
| – | – | – | 25.9 | 14.09 | 365 | – | O=C(NCc1cc2nc(-c3cccc(N4CC[C@H](F)C4)n3)ccc2cn1)c1ccc2c(c1)S(=O)(=O)CCOC2 [Compound 224] |
| 76.5 | 8.53 | 653 | – | – | – | – | COC[C@H]1C[C@H]1N(C)c1cccc(-c2ccc3cnc(CNC(=O)c4ccc5c(c4)S(=O)(=O)CCOC5)cc3n2)n1 [Compound 412] |
| 2.7 | 3.60 | 9.7 | – | – | – | – | C[C@@H]1CN(c2cccc(-c3ccc4cnc(CNC(=O)c5ccc6c(c5)S(=O)(=O)CCCOC6)cc4n3)n2)C[C@H](C)O1 [Compound 628] |
| 66.4 | 8.06 | 535 | – | – | – | – | O=C(NCc1cc2nc(-c3cccc(C4CCOC4)n3)ccc2cn1)c1ccc2c(c1)S(=O)(=O)CCOC2 (centres unmarked) [Compound 376] |
| – | – | – | 22.1 | 11.50 | 254 | – | O=C(NCc1cc2nc(-c3cccc(N4CCC(F)CC4)n3)ccc2cn1)c1ccc2c(c1)S(=O)(=O)CCOC2 [Compound 186] |
| – | – | – | 23.5 | 25.10 | 590 | – | O=C(NCc1cc2nc(-c3cccc(C4CC4)n3)ccc2cn1)c1ccc2c(c1)S(=O)(=O)CCOC2 [Compound 264] |
| 26.6 | 13.16 | 350 | – | – | – | – | CC1Cc2ccc(-c3ccc4cnc(CNC(=O)c5ccc6c(c5)S(=O)(=O)CCOC6)cc4n3)nc2N(C)C1 (centres unmarked) [Compound 612] |
| 20.6 | 23.93 | 494 | – | – | – | – | C[C@@H]1CN(c2cccc(-c3ccc4cnc(CNC(=O)c5ccc6c(c5)S(=O)(=O)CCCN6C)cc4n3)n2)C[C@H](C)O1 [Compound 415] |
| – | – | – | 7 | 9.47 | 66.2 | – | C[C@@H]1CN(c2cccc(-c3ccc4cnc(CNC(=O)c5ccc6c(c5)S(=O)(=O)CCOC6)cc4n3)n2)C[C@@H](C)O1 [Compound 215] |
| – | – | – | 29.8 | – | 153 | 5.13 | C[C@@H]1CN(c2cccc(-c3cnc4cnc(CNC(=O)c5ccc6c(c5)S(=O)(=O)[C@@H](C)COC6)cc4n3)n2)C[C@H](C)O1 [Compound 710] |
| – | – | – | 154 | 10.23 | 1580 | – | CC(c1cccc(-c2ccc3cnc(CNC(=O)c4ccc5c(c4)S(=O)(=O)CCOC5)cc3n2)n1)C(F)F (centres unmarked) [Compound 203] |
| 43.8 | 27.99 | 1230 | – | – | – | – | C[C@@H]1CN(c2cccc(-c3ccc4cnc(CNC(=O)c5ccc6c(c5)S(=O)(=O)CC[C@@H]6C)cc4n3)n2)C[C@H](C)O1 [Compound 483] |
| – | – | – | 252 | 9.56 | 2410 | – | CC1COCc2ccc(C(=O)NCc3cc4nc(-c5cccc(N6CCC6)n5)ccc4cn3)cc2S1(=O)=O (single isomer, unassigned) [Compound 199] |
